US20120088667A1, “SAFENING AGENT” (priority 2009, published 2012)
Where two headings read alike, the source gives them in different places.

Assays:
NAVY BEAN cv Mogex = assay: Root nodulation and safening, navy bean, compost of normal pH (Example 7.4); conditions: compost of normal pH (6.5)
Excerpt: (§1) The safener/safening system and the fertiliser were applied to the crops either simultaneously or sequentially.
(§2) Co=100% Cobalt Sulphate (20 g per litre and per hectare). FF1=20 g per litre Cobalt Sulphate (as per Co above) plus “Miracle-Gro” at xl recommended rate (applied at 15 g per 2.5 sq metres). Miracle-Gro contains: 24% N, 4% P, 13% K, plus 0.02% B, 0.03% Cu, 0.19% Fe, 0.05% Mn, 0.001% Mo and 0.03% Zn. FF2=20 g per litre Cobalt Sulphate plus Miracle-Gro at ×2 recommended rate. SAF: at least one from class (f) each at <3 g/l, plus at least one from class (c).
NAVY BEAN cv Mogex. Scored/Counted+28 Days after Spraying. Dates as per Example 7.3 Above, but sown in compost of normal pH (6.5). Each treatment represents the mean value from 12 plants, within four replicates. No inoculum applied.

PEA cv Ragtime = assay: Root nodulation and safening, pea, compost of normal pH (Example 7.6); conditions: compost of normal pH (6.5)
Excerpt: as §1, §2
PEA—TRIAL 7.6—cv Ragtime. Dates as per Example 7.5 above, but sown in compost of normal pH (6.5). […] No inoculum was applied.

Winter wheat cv Alchemy = assay: Safening of herbicides (Chlorotoluron, Isoproturon, Flumioxazin), winter wheat
Excerpt: Safening systems were applied to crops of oilseed rape and winter treated with various herbicides (Bifenox (with insecticide), Carbetamide, Propaquizafop, Chlorotoluron, Isoproturon, Flumioxazin). The safening system and the herbicide were applied to the crops either simultaneously or sequentially.
Oilseed rape: cv Excalibur, sown 26 Apr. 2008, at two seeds per 9 cm pot, sown in normal pH multi-purpose compost. Date of spraying: 6 June; Dates of measurement/scoring: 13 June, 20 June, 5 July. Winter wheat: cv Alchemy, sown 23 Apr. 2008, at seven seeds per 9 cm pot, sown in normal pH multi-purpose compost. Date of spraying: 24 May; Dates of measurement/scoring: 31 May, 7 June, 21 June. SAF: at least one from class (f) each at <3 g/l, plus at least one from class (c).
Statistical Layout: Randomised Complete Block trials, under glasshouse conditions, United Kingdom.

Winter Barley cv Saffron [1] = assay: Safening of fertilisers, pot trial: phytotoxicity and vigour scores, winter barley; type: in vivo
Excerpt: The safening system and the fertilizer were applied either simultaneously or sequentially.
Sprayed: mid-tillering phase (GS23). Winter Wheat: cv Limerick, sown 4 Jun. […] Sprayed: mid-tillering phase (GS23). Lettuce: cv Set, sown 10 Jul. 2008, at one seed per pot, in John Innes No 1 compost. Date of spraying: 30 July; Dates of measurement: 7 August, 14 August, 28 August. Sprayed: 2 true leaf stage.

Winter Barley cv Saffron [2] = conditions: for Vigour (0-9) (9 = Most Vigour) + 14 days: score 0-9, 9 = Most Vigour; for Vigour (0-9) + 28 Days: score 0-9, +28 days
Excerpt: (§3) The safening system and the fungicide were applied to the crops either simultaneously or sequentially, either as foliar applications or as a seed treatment.
(§4) Winter Barley: cv Saffron, sown 27 May 2008, at four/five seeds per 9 cm pot, sown in standard multi-purpose compost of pH 6.5. Date of spraying: 23 July; Dates of measurement/scoring: 30 July, 14 August, 22 August. Sprayed: mid-tillering phase (GS23). Winter Wheat: cv Limerick, sown 4 Jun. 2008, at four/five seeds per 9 cm pot, sown in standard multi-purpose compost of pH 6.5. Date of spraying: 23 July; Dates of measurement/scoring: 30 July, 14 August, 23 August. Sprayed: mid-tillering phase (GS23). Maize: cv Sundance, sown 25 May 2008, at 10 seeds per 25 cm pot, in John Innes No 1 compost. Date of measurement/assessment: 15 June. Seed treatment trial. Randomised block, mean of five replicates.
(§5) SAF: at least one from class (f) each at <3 g/l, plus at least one from class (c).

Winter Wheat cv Limerick = conditions: +14 days
Excerpt: as §3, §4, §5

Soybean = assay: Root nodulation and safening, soybean, compost of low pH (Example 7.1); conditions: Soybean, compost of low pH (5.0-5.5)
Excerpt: as §1, §2
Scored/Counted+28 Days After Spraying. Sown in Compost of low pH (5.0-5.5) on 1 May 2008. Spray Date (VC)=4 June, V1 Date=20 June. Scored/Measured on 17 July. […] Seed density approx 110 kg/ha. Soybean treated with standard inoculant at sowing.

[3] = Table 2.1, fungicide Prochloraz
[4] = Table 2.2, fungicide Flutriafol
[5] = Table 2.3, fungicides Fenpropidin and Flutriafol

CC(=O)Nc1ccc(O)cc1 [AC, N-(4-hydroxypheyl)acetamide, reference compound] was tested, and the “Nodules Per Plant (V1)” value (NAVY BEAN cv Mogex; V1, +28 days after spraying, no inoculum) was 29.5, the “Nodulation Score (0-9) (V1)” value (NAVY BEAN cv Mogex; V1, score 0-9) was 4.8 and the “Phyto-Toxicity Score (0-9) (V1)” value (NAVY BEAN cv Mogex; V1, score 0-9) was 7.0. The “Vigour Score (0-9) (V1)” value (NAVY BEAN cv Mogex; V1, score 0-9) was 7.0, the “Nodules Per Plant (VC)” value (NAVY BEAN cv Mogex; VC) was 32.1 and the “Nod Score (0-9) (VC)” value (NAVY BEAN cv Mogex; VC, score 0-9) was 5.0. For the same molecule, the “Nodules Per Plant (V1)” value (PEA cv Ragtime; V1, no inoculum) was 15.4, the “Nodulation Score (0-9) (V1)” value (PEA cv Ragtime; V1, score 0-9) was 4.9 and the “Phyto-Toxicity Score (0-9) (V1)” value (PEA cv Ragtime; V1, score 0-9) was 7.0. For the same molecule, the “Vigour Score (0-9) (V1)” value (PEA cv Ragtime; V1, score 0-9) was 6.7, the “Nodules Per Plant (VC)” value (PEA cv Ragtime; VC) was 16.4 and the “Nod Score (0-9) (VC)” value (PEA cv Ragtime; VC, score 0-9) was 5.0. The “Greenness (0-9) (9 = Deeper Green) + 14 Days” value (Winter wheat cv Alchemy; Table 3.3, no herbicide) was 8.0, the “Greenness (0-9) + 28 Days” value (Winter wheat cv Alchemy; Table 3.3, no herbicide) was 8.0 and the “Phytotoxicity (0-9) + 28 Days” value (Winter wheat cv Alchemy; Table 3.3, no herbicide) was 8.0. The “Greenness (0-9) (9 = Deeper Green) + 14 Days” value (Winter wheat cv Alchemy; Table 3.4, no herbicide) was 8.0, the “Greenness (0-9) + 28 Days” value (Winter wheat cv Alchemy; Table 3.4, no herbicide) was 8.0 and the “Phytotoxicity (0-9) + 28 Days” value (Winter wheat cv Alchemy; Table 3.4, no herbicide) was 8.0. The “Greenness (0-9) (9 = Deeper Green) + 14 Days” value (Winter wheat cv Alchemy; Table 3.5, no herbicide) was 8.0, the “Greenness (0-9) + 28 Days” value (Winter wheat cv Alchemy; Table 3.5, no herbicide) was 8.0 and the “Phytotoxicity (0-9) + 28 Days” value (Winter wheat cv Alchemy; Table 3.5, no herbicide) was 8.0. The “Vigour (0-9) (9 = Most Vigour) + 14 days” value (Winter Barley cv Saffron [1]; 336 h) was 7.0, the “Vigour (0-9) + 28 Days” value (Winter Barley cv Saffron [1]; 672 h) was 8.0 and the “Vigour (0-9) (9 = Most Vigour) + 14 days” value (Winter Barley cv Saffron [1]; Table 1.3, winter barley, general fertilisers, score 0-9, +14 days) was 7.0. For the same molecule, the “Vigour (0-9) + 28 Days” value (Winter Barley cv Saffron [1]; Table 1.3, winter barley, general fertilisers, score 0-9, +28 days) was 8.0, the “Vigour (0-9) (9 = Most Vigour) + 14 days” value (Winter Barley cv Saffron [2]; [3]) was 7.0 and the “Vigour (0-9) + 28 Days” value (Winter Barley cv Saffron [2]; [3]) was 8.0. The “Vigour (0-9) (9 = Most Vigour) + 14 days” value (Winter Barley cv Saffron [2]; [4]) was 7.0, the “Vigour (0-9) + 28 Days” value (Winter Barley cv Saffron [2]; [4]) was 8.0 and the “Vigour (0-9) (9 = Most Vigour) + 14 days” value (Winter Barley cv Saffron [2]; [5]) was 7.0. For the same molecule, the “Vigour (0-9) + 28 Days” value (Winter Barley cv Saffron [2]; [5]) was 8.0, the “Vigour (0-9) (9 = Most Vigour) + 14 days” value (Winter Wheat cv Limerick; Table 2.4, winter wheat, fungicide Prochloraz, score 0-9, 9 = Most Vigour) was 7.0 and the “Vigour (0-9) (9 = Most Vigour) + 14 days” value (Winter Wheat cv Limerick; Table 2.5, winter wheat, fungicide Flutriafol, score 0-9, 9 = Most Vigour) was 7.0. The “Vigour (0-9) (9 = Most Vigour) + 14 days” value (Winter Wheat cv Limerick; score 0-9, 9 = most vigour, foliar, fungicides Fenpropidin and Flutriafol, Table 2.6) was 7.0, the “Nodules Per Plant (V1)” value (Soybean; V1, +28 days after spraying, mean of 12 plants) was 26.1 and the “Nodulation Score (0-9) (V1)” value (Soybean; V1, score 0-9) was 5.0. For the same molecule, the “Phyto-Toxicity Score (0-9) (V1)” value (Soybean; V1, score 0-9) was 8.0, the “Vigour Score (0-9) (V1)” value (Soybean; V1, score 0-9) was 6.0 and the “Nodules Per Plant (VC)” value (Soybean; VC, +28 days after spraying) was 28.1. For the same molecule, the “Nod Score (0-9) (VC)” value (Soybean; VC, score 0-9) was 5.3.
